# Measurements as given in patent publication US12371430B2, “5-morpholin-4-yl-pyrazolo[4,3-b]pyridine derivatives” (Merck Patent GmbH, priority 2018, dated 2025).
# How the values were obtained:
# [1] = test system: phosphorylation of Chk1 (Ser 345) in HT29 colon adenocarcinoma cells; test: pCHK1 cellular assay; type: cell-based; settings: Homo sapiens, HT-29, hydroxyurea 3 mM, 4 h
# Excerpt: Chk1 kinase acts downstream of ATR and has a key role in DNA damage checkpoint control. Activation of Chk1 involves phosphorylation of Ser317 and Ser345 (regarded as the preferential target for phosphorylation/activation by ATR) and occurs in response to blocked DNA replication and certain forms of genotoxic stress. Phosphorylation at Ser 345 serves to localize Chk1 to the nucleus following checkpoint activation.
# This assay measures a decrease in phosphorylation of Chk1 (Ser 345) in HT29 colon adenocarcinoma cells following treatment with compound and hydroxyurea (which promotes fork stalling because of dNTP depletion) and using an immunocytochemical procedure and high content imaging.
# For the assay HT29 cells are plated in culture medium (DMEM high Glucose (no phenol red), 2 mM Glutamax, 1 mM Pyruvate, 10% FCS into Greiner 384 well plates, black, μclear #781090 (2500 cells/well/30 μl) and incubated for at least 20 hours at 37° C., 10% CO2 and 90% rH. Diluted test compounds (1 nM-30 μM final) and hydroxyurea (3 mM final) are added simultaneously and cells are incubated for 4 h at 37° C. After fixation/prmeabilisation with 100% MeOH (−20° C. cold) and permeabilisation with 0.2% Triton X-100 a complete immunocytochemical procedure is performed using a specific anti-pChk1 antibody (Cell Signaling, #2348BF) and fluorescently labelled secondary antibody (Alexa Fluor® 488 goat anti-rabbit F(ab′)2 fragment, Invitrogen A11070) and parallel nuclear staining for cell counting.
# The nuclear localised pChk1 signal is detected on an ImageXpress Ultra confocal high content reader and reported as % positive cells (nuclei).
# ATR/ATRIP = ATR/ATRIP (Homo sapiens (Human), UniProt Q13535); test: ATR/ATRIP kinase assay (TR-FRET, p53 Ser15 phosphorylation); type: biochemical; settings: 0.5 μM ATP, 50 nM p53
# Procedure: ATR/ATRIP Kinase Assay—Measurement of ATR/ATRIP Inhibition
# The IC50 value was determined by an ATR/ATRIP enzymatic assay. The assay comprises two steps: the enzymatic reaction and the detection step. First, a mixture of ATR/ATRIP protein (Ataxia Telangiectasia and Rad3-related protein/ATR interacting protein), the compound in question at different concentrations, p53 as substrate protein and adenosine triphosphate (ATP) are incubated in assay buffer. ATR phosporylates p53 at Ser15 and other residues. The amount of phosphorylated p53 is then detected using specific antibodies and the TR-FRET assay technology.
# In detail: The ATR/ATRIP enzymatic assay is performed as a TR-FRET-(HTRF™, Cisbio Bioassays) based 384-well assay. In a first step, purified human recombinant ATR/ATRIP (human ATR, full length, GenBank ID: NM_001184.3, and human ATRIP, full length, GenBank ID AF451323.1, co-expressed in a mammalian cell line) is incubated in assay buffer for 15 minutes at 22° C. with test compound at different concentrations or without test compound (as a negative control). The assay buffer contains 25 mM HEPES pH 8.0, 10 mM Mg(CH3COO)2, 1 mM MnCl2, 0.1% BSA, 0.01% Brij® 35, and 5 mM dithiothreitol (DTT). An Echo 555 (Labcyte) is used for dispensing of compound solutions. Then, in a second step, purified human recombinant cmyc-tagged p53 (human p53, full length, GenBank ID: BC003596, expressed in Sf21 insect cells) and ATP are added and the reaction mixture is incubated for 25-35 minutes, typically 25 minutes, at 22° C. The pharmacologically relevant assay volume is 5 μl. The final concentrations in the assay during incubation of the reaction mixture are 0.3-0.5 nM, typically 0.3 nM, ATR/ATRIP, 50 nM p53, and 0.5 μM ATP. The enzymatic reaction is stopped by the addition of EDTA. The generation of phosphorylated p53 as a result of the ATR mediated reaction in the presence of ATP is detected by using specific antibodies [labeled with the fluorophores europium (Eu) as donor and d2 as acceptor (Cisbio Bioassays)] enabling FRET. For this purpose, 2 μl of antibody-containing stop solution (12.5 mM HEPES pH 8.0, 125 mM EDTA, 30 mM sodium chloride, 300 mM potassium fluoride, 0.006% Tween-20, 0.005% Brij® 35, 0.21 nM anti-phospho-p53(Ser15)-Eu antibody, 15 nM anti-cmyc-d2 antibody) are added to the reaction mixture. Following signal development for 2 h the plates are analyzed in an EnVision (PerkinElmer) microplate reader using the TRF mode with laser excitation. Upon excitation of the donor europium at 340 nm the emitted fluorescence light of the acceptor d2 at 665 nm as well as from the donor Eu at 615 nm are measured. The amount of phosphorylated p53 is directly proportional to the ratio of the amounts of emitted light i.e. the ratio of the relative fluorescence units (rfu) at 665 nm and 615 nm. Data are processed employing the Genedata Screener software. In particular, IC50 values are determined in the usual manner by fitting a dose-response curve to the data points using nonlinear regression analysis. • IC50=half maximal inhibitory concentration • ATP=Adenosine triphosphate • TR-FRET=Time-Resolved Fluorescence Resonance Energy Transfer • HTRF®=Homogeneous Time Resolved Fluorescence • HEPES=2-(4-(2-Hydroxyethyl)-1-piperazinyl)-ethanesulfonic acid • Mg(CH3COO)2=Magnesium acetate • MnCl2=Manganese(II)-chloride • BSA=Bovine Serum Albumin • EDTA=Ethylendiamine Tetraacetate • TRF=Time Resolved Fluorescence pCHK1 Cellular Assay
# Chain of ATR/ATRIP (Q13535 whole entry): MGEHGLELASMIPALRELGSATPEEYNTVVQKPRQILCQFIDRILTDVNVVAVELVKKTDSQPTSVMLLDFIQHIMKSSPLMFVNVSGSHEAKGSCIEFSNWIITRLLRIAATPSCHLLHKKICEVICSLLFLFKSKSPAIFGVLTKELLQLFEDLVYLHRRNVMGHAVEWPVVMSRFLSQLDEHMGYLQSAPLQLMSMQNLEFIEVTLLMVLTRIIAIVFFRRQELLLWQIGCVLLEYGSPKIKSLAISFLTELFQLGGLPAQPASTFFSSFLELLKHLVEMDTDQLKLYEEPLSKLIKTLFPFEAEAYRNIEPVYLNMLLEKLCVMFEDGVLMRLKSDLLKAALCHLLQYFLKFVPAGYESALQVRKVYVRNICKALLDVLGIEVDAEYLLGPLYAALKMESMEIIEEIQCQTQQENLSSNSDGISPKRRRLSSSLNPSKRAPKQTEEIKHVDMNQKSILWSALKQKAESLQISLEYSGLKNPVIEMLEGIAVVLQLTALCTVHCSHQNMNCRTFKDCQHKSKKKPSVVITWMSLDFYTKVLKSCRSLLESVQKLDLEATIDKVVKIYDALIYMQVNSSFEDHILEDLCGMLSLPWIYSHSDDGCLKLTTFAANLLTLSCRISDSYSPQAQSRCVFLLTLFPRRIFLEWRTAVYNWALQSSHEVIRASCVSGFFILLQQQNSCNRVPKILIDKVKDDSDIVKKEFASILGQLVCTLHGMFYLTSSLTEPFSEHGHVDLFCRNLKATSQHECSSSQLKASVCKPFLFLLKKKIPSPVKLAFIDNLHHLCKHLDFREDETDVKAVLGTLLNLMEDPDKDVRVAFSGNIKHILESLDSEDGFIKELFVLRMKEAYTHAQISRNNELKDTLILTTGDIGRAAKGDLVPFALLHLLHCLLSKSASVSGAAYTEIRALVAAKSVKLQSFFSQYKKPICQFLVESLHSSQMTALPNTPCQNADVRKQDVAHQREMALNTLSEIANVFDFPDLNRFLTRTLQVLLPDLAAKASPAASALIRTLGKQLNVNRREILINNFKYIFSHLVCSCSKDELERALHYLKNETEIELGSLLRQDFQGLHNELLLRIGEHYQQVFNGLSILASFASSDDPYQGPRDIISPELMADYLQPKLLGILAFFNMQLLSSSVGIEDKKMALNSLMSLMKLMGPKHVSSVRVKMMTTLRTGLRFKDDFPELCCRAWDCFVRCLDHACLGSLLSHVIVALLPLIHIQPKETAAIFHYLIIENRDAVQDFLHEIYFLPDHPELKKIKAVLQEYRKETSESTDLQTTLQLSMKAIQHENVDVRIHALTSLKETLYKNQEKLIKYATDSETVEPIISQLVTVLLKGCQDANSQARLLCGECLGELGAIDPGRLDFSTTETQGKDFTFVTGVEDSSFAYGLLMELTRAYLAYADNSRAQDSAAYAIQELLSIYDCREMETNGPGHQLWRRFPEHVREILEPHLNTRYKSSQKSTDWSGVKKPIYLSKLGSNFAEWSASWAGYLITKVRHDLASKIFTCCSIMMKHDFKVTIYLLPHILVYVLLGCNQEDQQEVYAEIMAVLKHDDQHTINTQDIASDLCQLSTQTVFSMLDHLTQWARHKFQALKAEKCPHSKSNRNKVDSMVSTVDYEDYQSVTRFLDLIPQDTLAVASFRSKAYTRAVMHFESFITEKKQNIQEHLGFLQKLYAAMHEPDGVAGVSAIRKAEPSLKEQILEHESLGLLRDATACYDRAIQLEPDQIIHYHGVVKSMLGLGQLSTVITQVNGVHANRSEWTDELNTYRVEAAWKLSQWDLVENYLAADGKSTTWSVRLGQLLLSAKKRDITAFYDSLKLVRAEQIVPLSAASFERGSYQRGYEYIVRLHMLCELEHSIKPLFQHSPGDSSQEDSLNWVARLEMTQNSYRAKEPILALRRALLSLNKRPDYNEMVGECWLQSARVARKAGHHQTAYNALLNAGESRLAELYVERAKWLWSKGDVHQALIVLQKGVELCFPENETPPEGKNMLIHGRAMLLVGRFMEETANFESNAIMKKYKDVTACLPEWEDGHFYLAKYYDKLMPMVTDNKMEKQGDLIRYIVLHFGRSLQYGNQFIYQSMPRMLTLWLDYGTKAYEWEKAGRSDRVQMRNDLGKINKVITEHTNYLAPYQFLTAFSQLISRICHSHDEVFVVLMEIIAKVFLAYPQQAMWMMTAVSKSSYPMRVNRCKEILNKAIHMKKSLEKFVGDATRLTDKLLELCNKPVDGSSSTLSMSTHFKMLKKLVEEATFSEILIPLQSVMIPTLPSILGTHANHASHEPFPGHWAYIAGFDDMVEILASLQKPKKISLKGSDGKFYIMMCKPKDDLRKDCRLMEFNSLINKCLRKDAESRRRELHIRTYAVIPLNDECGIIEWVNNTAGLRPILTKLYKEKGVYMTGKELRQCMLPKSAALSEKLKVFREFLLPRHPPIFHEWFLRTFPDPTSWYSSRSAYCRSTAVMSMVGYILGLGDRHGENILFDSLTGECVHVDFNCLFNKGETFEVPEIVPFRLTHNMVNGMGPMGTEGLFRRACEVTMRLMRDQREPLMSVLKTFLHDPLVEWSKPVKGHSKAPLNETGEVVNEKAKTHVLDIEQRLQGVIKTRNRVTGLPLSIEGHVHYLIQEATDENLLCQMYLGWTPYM
# Chain of ATR/ATRIP (Q8WXE1 whole entry partner): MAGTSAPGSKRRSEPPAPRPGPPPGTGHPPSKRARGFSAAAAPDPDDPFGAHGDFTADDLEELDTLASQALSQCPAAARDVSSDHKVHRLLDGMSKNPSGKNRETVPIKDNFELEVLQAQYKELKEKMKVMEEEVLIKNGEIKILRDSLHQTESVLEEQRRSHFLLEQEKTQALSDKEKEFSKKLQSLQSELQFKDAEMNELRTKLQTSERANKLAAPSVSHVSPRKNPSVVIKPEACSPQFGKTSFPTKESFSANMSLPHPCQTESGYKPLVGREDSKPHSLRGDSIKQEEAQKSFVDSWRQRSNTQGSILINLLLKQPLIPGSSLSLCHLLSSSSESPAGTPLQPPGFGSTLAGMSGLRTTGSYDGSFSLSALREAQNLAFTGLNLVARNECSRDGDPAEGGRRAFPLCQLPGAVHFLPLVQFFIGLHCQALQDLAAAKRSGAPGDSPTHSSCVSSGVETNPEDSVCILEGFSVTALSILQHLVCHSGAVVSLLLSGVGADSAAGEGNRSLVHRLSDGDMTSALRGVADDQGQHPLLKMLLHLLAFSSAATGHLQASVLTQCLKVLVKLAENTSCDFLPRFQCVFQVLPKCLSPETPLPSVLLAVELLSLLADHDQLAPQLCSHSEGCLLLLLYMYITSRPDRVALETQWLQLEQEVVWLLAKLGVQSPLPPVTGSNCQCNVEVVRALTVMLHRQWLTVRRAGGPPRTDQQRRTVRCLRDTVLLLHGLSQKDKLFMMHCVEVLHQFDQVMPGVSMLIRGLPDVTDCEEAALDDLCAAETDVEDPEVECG
Structure (SMILES),IC50 [1] [µM],IC50 (ATR/ATRIP) [µM]
"C[C@@H]1COCCN1c1ccc2c(n1)c(-c1cc[nH]n1)nn2C(C)(C)CO [Compound 86, 2-Methyl-2-{5-[(3R)-3-methylmorpholin-4-yl]-3-(1H-pyrazol-3-yl)-1H-pyrazolo[4,3-b]pyridin-1-yl}propan-1-ol]",1 to 10,0.024
"C[C@@H]1COCCN1c1cc(C2CC2)c2c(n1)c(-c1ccn[nH]1)nn2C [Compound 43, 7-Cyclopropyl-1-methyl-5-((R)-3-methyl-morpholin-4-yl)-3-(2H-pyrazol-3-yl)-1H-pyrazolo[4,3-b]pyridine]",0.1 to 1,0.0039
"C[C@@H]1COCCN1c1cc(-c2ccn(CCO)n2)c2c(n1)c(-c1cc[nH]n1)nn2C [Compound 37, 2-{3-[1-Methyl-5-((R)-3-methyl-morpholin-4-yl)-3-(1H-pyrazol-3-yl)-1H-pyrazolo[4,3-b]pyridin-7-yl]-pyrazol-1-yl}-ethanol]",0.1 to 1,0.0079
"C[C@@H]1COCCN1c1cc(-c2cccc(S(C)(=O)=O)c2)c2c(n1)c(-c1ccn[nH]1)nn2C [Compound 76, (3R)-4-[7-(3-Methanesulfonylphenyl)-1-methyl-3-(1H-pyrazol-5-yl)-1H-pyrazolo[4,3-b]pyridin-5-yl]-3-methylmorpholine]",0.1 to 1,0.028
"C[C@@H]1COCCN1c1cc(-c2ccnc3[nH]ccc23)c2nn(C)c(-c3cc[nH]n3)c2n1 [Compound 16, 2-Methyl-5-((R)-3-methyl-morpholin-4-yl)-3-(1H-pyrazol-3-yl)-7-(1H-pyrrolo[2,3-b]pyridin-4-yl)-2H-pyrazolo[4,3-b]pyridine]",1 to 10,0.067
"C[C@@H]1COCCN1c1cc(CO)c2c(n1)c(-c1cc[nH]n1)nn2C [Compound 24, [1-Methyl-5-((R)-3-methyl-morpholin-4-yl)-3-(1H-pyrazol-3-yl)-1H-pyrazolo[4,3-b]pyridin-7-yl]-methanol]",0.1 to 1,0.028
"Cc1cccnc1-c1cc(N2CCOC[C@H]2C)nc2c(-c3cc[nH]n3)n[nH]c12 [Compound 39, (3R)-3-Methyl-4-[7-(3-methylpyridin-2-yl)-3-(1H-pyrazol-3-yl)-1H-pyrazolo[4,3-b]pyridin-5-yl]morpholine]",0.1 to 1,0.0079
"Cc1ccc(-c2cc(N3CCOC[C@H]3C)nc3c(-c4cc(C)n[nH]4)n[nH]c23)cn1 [Compound 3, (3R)-3-Methyl-4-[3-(3-methyl-1H-pyrazol-5-yl)-7-(6-methylpyridin-3-yl)-1H-pyrazolo[4,3-b]pyridin-5-yl]morpholine]",0.01 to 0.1,0.0009
"CC(C)n1nc(-c2cc[nH]n2)c2nc(N3CCOC[C@H]3C)ccc21 [Compound 73, (3R)-3-Methyl-4-[1-(propan-2-yl)-3-(1H-pyrazol-3-yl)-1H-pyrazolo[4,3-b]pyridin-5-yl]morpholine]",0.1 to 1,0.028
"CNC(=O)c1cc(N2CCOC[C@H]2C)nc2c(-c3cc[nH]n3)nn(C)c12 [Compound 31, 1-Methyl-5-((R)-3-methyl-morpholin-4-yl)-3-(1H-pyrazol-3-yl)-1H-pyrazolo[4,3-b]pyridine-7-carboxylic acid methylamide]",0.1 to 1,0.033
"COCc1ccc(-c2cc(N3CCOC[C@H]3C)nc3c(-c4cc[nH]n4)nn(C)c23)cc1 [Compound 51, (3R)-4-{7-[4-(Methoxymethyl)phenyl]-1-methyl-3-(1H-pyrazol-3-yl)-1H-pyrazolo[4,3-b]pyridin-5-yl}-3-methylmorpholine]",0.1 to 1,0.0012
"C[C@@H]1COCCN1c1cc(C2=CCS(=O)(=O)CC2)c2c(n1)c(-c1ccn[nH]1)nn2C [Compound 81, 4-[1-Methyl-5-[(3R)-3-methylmorpholin-4-yl]-3-(1H-pyrazol-5-yl)-1H-pyrazolo[4,3-b]pyridin-7-yl]-3,6-dihydro-2H-1lambda6-thiopyran-1,1-dione]",0.1 to 1,0.003
"C[C@@H]1COCCN1c1cc(-c2ccccn2)c2[nH]nc(-c3cc[nH]n3)c2n1 [Compound 38, (3R)-3-Methyl-4-[3-(1H-pyrazol-3-yl)-7-(pyridin-2-yl)-1H-pyrazolo[4,3-b]pyridin-5-yl]morpholine]",0.1 to 1,0.0043
"C[C@@H]1COCCN1c1ccc2c(n1)c(-c1cc[nH]n1)nn2-c1ccc(S(C)(=O)=O)cc1 [Compound 46, 1-(4-Methanesulfonyl-phenyl)-5-((R)-3-methyl-morpholin-4-yl)-3-(1H-pyrazol-3-yl)-1H-pyrazolo[4,3-b]pyridine]",1 to 10,0.025
"C[C@@H]1COCCN1c1ccc2c(n1)c(-c1cc[nH]n1)nn2CC1CC1 [Compound 63, (3R)-4-[1-(Cyclopropylmethyl)-3-(1H-pyrazol-3-yl)-1H-pyrazolo[4,3-b]pyridin-5-yl]-3-methylmorpholine]",0.1 to 1,0.027
"Cc1ccc(S(C)(=O)=O)cc1-c1cc(N2CCOC[C@H]2C)nc2c(-c3ccn[nH]3)nn(C)c12 [Compound 75, (3R)-4-[7-(5-Methanesulfonyl-2-methylphenyl)-1-methyl-3-(1H-pyrazol-5-yl)-1H-pyrazolo[4,3-b]pyridin-5-yl]-3-methylmorpholine]",0.1 to 1,0.021
"C[C@@H]1COCCN1c1cc(C(=O)N(C)C)c2[nH]nc(-c3cc[nH]n3)c2n1 [Compound 27, 5-((R)-3-Methyl-morpholin-4-yl)-3-(1H-pyrazol-3-yl)-1H-pyrazolo[4,3-b]pyridine-7-carboxylic acid dimethylamide]",0.1 to 1,0.01
"Cc1cccc(-c2cc(N3CCOC[C@H]3C)nc3c(-c4cc[nH]n4)nn(C)c23)n1 [Compound 33, 1-Methyl-5-((R)-3-methyl-morpholin-4-yl)-7-(6-methyl-pyridin-2-yl)-3-(1H-pyrazol-3-yl)-1H-pyrazolo[4,3-b]pyridine]",0.1 to 1,0.016
"C[C@@H]1COCCN1c1ccc2[nH]nc(-c3cc[nH]n3)c2n1 [Compound 56, (3R)-3-Methyl-4-[3-(1H-pyrazol-3-yl)-1H-pyrazolo[4,3-b]pyridin-5-yl]morpholine]",1 to 10,0.025
"C[C@@H]1COCCN1c1cc(-c2ccccn2)c2c(n1)c(-c1cc[nH]n1)nn2C [Compound 58, (3R)-3-Methyl-4-[1-methyl-3-(1H-pyrazol-3-yl)-7-(pyridin-2-yl)-1H-pyrazolo[4,3-b]pyridin-5-yl]morpholine]",0.1 to 1,0.01
